# Experimental data as given in patent US9290467B2, “Cyclic amides” (Hoffmann-La Roche Inc., priority 2012, dated 2016).
# pIC50: −log10 of the molar value.
# Target: Cathepsin L (Homo sapiens (Human), UniProt P07711)
# Assay: Cathepsin enzyme inhibition assay (fluorogenic peptide substrate Z-Val-Val-Arg-AMC)
# Type: biochemical
# Settings: enzyme 1 nM, substrate 20 μM, pH 6.5
# Method: Enzyme activity is measured by observing the increase in fluorescence intensity caused by cleavage of a peptide substrate containing a fluorophore whose emission is quenched in the intact peptide.
# Assay buffer: 100 mM potassium phosphate pH 6.5, EDTA-Na 5 mM, Triton X-100 0.001%, DDT 5 mM.
# Enzymes (all at 1 nM): human and mouse Cathepsin S, Cat K, Cat B, Cat L
# Substrate (20 μM): Z-Val-Val-Arg-AMC, except for Cat K which uses Z-Leu-Arg-AMC (both from Bachem).
# AMC=7-Amino-4-Methyl-Coumarin.
# Excitation 360 nm, Emission 465 nm.
# Enzyme is added to the substance dilutions in 96-well microtitre plates and the reaction is started with substrate. […] IC50 are calculated by standard methods. The results are expressed in μM in the following table.
# Cathepsin L, sequence (P07711 114-333): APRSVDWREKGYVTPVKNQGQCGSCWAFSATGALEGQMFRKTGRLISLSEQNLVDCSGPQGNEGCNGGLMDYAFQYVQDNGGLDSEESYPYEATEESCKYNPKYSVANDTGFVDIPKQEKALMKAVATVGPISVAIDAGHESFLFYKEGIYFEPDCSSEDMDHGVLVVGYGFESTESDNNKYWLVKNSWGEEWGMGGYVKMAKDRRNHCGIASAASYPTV
row,SMILES,pIC50
1,"N#CC1(NC(=O)[C@@H]2Cc3ccc(c(Cl)c3)OC/C=C/CCN3CCCC3C(=O)N2)CC1 (mixture of isomers) [Example 12, (E)-(S)-18-Chloro-5-oxo-16-oxa-4,10-diaza-tricyclo[15.2.2.0*6,10*]henicosa-1(20),13,17(21),18-tetraene-3-carboxylic acid (1-cyano-cyclopropyl)-amide]",6.06
2,"N#CC1(NC(=O)[C@@H]2Cc3ccc(c(Cl)c3)OC/C=C/CCN3C[C@@H](F)CC3C(=O)N2)CC1 (mixture of isomers) [Example 13, (E)-(3S,8S)-18-Chloro-8-fluoro-5-oxo-16-oxa-4,10-diaza-tricyclo[15.2.2.0*6,10*]henicosa-1(20),13,17(21),18-tetraene-3-carboxylic acid (1-cyano-cyclopropyl)-amide]",6.02
3,"N#CC1(NC(=O)[C@@H]2Cc3ccc(c(Cl)c3)OC/C=C/CCN3CC(F)(F)CC3C(=O)N2)CC1 (mixture of isomers) [Example 14, (E)-(S)-18-Chloro-8,8-difluoro-5-oxo-16-oxa-4,10-diaza-tricyclo[15.2.2.0*6,10*]henicosa-1(20),13,17(21),18-tetraene-3-carboxylic acid (1-cyano-cyclopropyl)-amide]",5.22
4,"CC1(C)CC2C(=O)N[C@H](C(=O)NC3(C#N)CC3)Cc3ccc(c(Cl)c3)OC/C=C/CCN2C1 (mixture of isomers) [Example 15, (E)-(S)-18-Chloro-8,8-dimethyl-5-oxo-16-oxa-4,10-diaza-tricyclo[15.2.2.0*6,10*]henicosa-1(20),13,17(21),18-tetraene-3-carboxylic acid (1-cyano-cyclopropyl)-amide]",6.78
5,"N#CC1(NC(=O)[C@@H]2Cc3ccc(cc3)OC/C=C/COc3cccc(c3)C(=O)N2)CC1 [Example 2, (E)-(S)-5-Oxo-11,16-dioxa-4-aza-tricyclo[15.2.2.1*6,10*]docosa-1(20),6,8,10(22),13,17(21),18-heptaene-3-carboxylic acid (1-cyano-cyclopropyl)-amide]",6.64
6,"N#CC1(NC(=O)[C@@H]2Cc3ccc(cc3)OC/C=C/CCc3ccccc3C(=O)N2)CC1 [Example 3, (E)-(S)-5-Oxo-17-oxa-4-aza-tricyclo[16.2.2.0%6,11&]docosa-1(21),6,8,10,14,18(22),19-heptaene-3-carboxylic acid (1-cyano-cyclopropyl)-amide]",7.11
7,"N#CC1(NC(=O)[C@@H]2Cc3ccc(c(Cl)c3)OC/C=C/COc3ccccc3C(=O)N2)CC1 [Example 4, (E)-(S)-19-Chloro-5-oxo-12,17-dioxa-4-aza-tricyclo[16.2.2.0*6,11*]docosa-1(21),6(11),7,9,14,18(22),19-heptaene-3-carboxylic acid (1-cyano-cyclopropyl)-amide]",7.86
8,"N#CC1(NC(=O)[C@@H]2Cc3ccc(c(Cl)c3)OC/C=C/CCc3ccccc3C(=O)N2)CC1 [Example 5, (E)-(S)-19-Chloro-5-oxo-17-oxa-4-aza-tricyclo[16.2.2.0*6,11*]docosa-1(21),6,8,10,14,18(22),19-heptaene-3-carboxylic acid (1-cyano-cyclopropyl)-amide]",8.02
9,"N#CC1(NC(=O)[C@@H]2Cc3ccc(c(Cl)c3)OC/C=C/COc3cccc(c3)C(=O)N2)CC1 [Example 6, (E)-(S)-18-Chloro-5-oxo-11,16-dioxa-4-aza-tricyclo[15.2.2.1*6,10*]docosa-1(20),6,8,10(22),13,17(21),18-heptaene-3-carboxylic acid (1-cyano-cyclopropyl)-amide]",7.49
10,"N#CC1(NC(=O)[C@@H]2Cc3ccc(c(Cl)c3)OCCCCOc3ccccc3C(=O)N2)CC1 [Example 7, (S)-19-Chloro-5-oxo-12,17-dioxa-4-aza-tricyclo[16.2.2.0*6,11*]docosa-1(21),6,8,10,18(22),19-hexaene-3-carboxylic acid (1-cyano-cyclopropyl)-amide]",7.02
11,"N#CC1(NC(=O)[C@@H]2Cc3ccc(c(Cl)c3)OC/C=C/COc3ccc(Br)cc3C(=O)N2)CC1 [Example 8, (E)-(S)-8-Bromo-19-chloro-5-oxo-12,17-dioxa-4-aza-tricyclo[16.2.2.0*6,11*]docosa-1(21),6,8,10,14,18(22),19-heptaene-3-carboxylic acid (1-cyano-cyclopropyl)-amide]",7.61
12,"N#CC1(NC(=O)[C@@H]2Cc3ccc(c(Cl)c3)OCCCCOc3ccc(Br)cc3C(=O)N2)CC1 [Example 9, (S)-8-Bromo-19-chloro-5-oxo-12,17-dioxa-4-aza-tricyclo[16.2.2.0%6,11&]docosa-1(21),6,8,10,18(22),19-hexaene-3-carboxylic acid (1-cyano-cyclopropyl)-amide]",8.00
13,"N#CC1(NC(=O)[C@@H]2Cc3ccc(c(Cl)c3)OC/C=C/COc3ccc(Cl)cc3C(=O)N2)CC1 [Example 10, (E)-(S)-8,19-Dichloro-5-oxo-12,17-dioxa-4-aza-tricyclo[16.2.2.0*6,11*]docosa-1(21),6,8,10,14,18(22),19-heptaene-3-carboxylic acid (1-cyano-cyclopropyl)-amide]",7.99
14,"N#CC1(NC(=O)[C@@H]2Cc3ccc(c(Cl)c3)OCCCCOc3ccc(Cl)cc3C(=O)N2)CC1 [Example 11, (S)-8,19-Dichloro-5-oxo-12,17-dioxa-4-aza-tricyclo[16.2.2.0*6,11*]docosa-1(21),6,8,10,18(22),19-hexaene-3-carboxylic acid (1-cyano-cyclopropyl)-amide]",7.94
15,"COc1ccc2c(c1)C(=O)N[C@H](C(=O)NC1(C#N)CC1)Cc1ccc(c(Cl)c1)OC/C=C/CO2 [Example 16, (E)-(S)-19-Chloro-8-methoxy-5-oxo-12,17-dioxa-4-aza-tricyclo[16.2.2.0*6,11*]docosa-1(21),6,8,10,14,18(22),19-heptaene-3-carboxylic acid (1-cyano-cyclopropyl)-amide]",7.94
16,"COc1ccc2c(c1)C(=O)N[C@H](C(=O)NC1(C#N)CC1)Cc1ccc(c(Cl)c1)OCCCCO2 [Example 17, (S)-19-Chloro-8-methoxy-5-oxo-12,17-dioxa-4-aza-tricyclo[16.2.2.0*6,11*]docosa-1(21),6,8,10,18(22),19-hexaene-3-carboxylic acid (1-cyano-cyclopropyl)-amide]",7.98
17,"N#CC1(NC(=O)[C@@H]2Cc3ccc(c(Cl)c3)OC/C=C/COc3cc(C(F)(F)F)ccc3C(=O)N2)CC1 [Example 20, (E)-(S)-19-Chloro-5-oxo-9-trifluoromethyl-12,17-dioxa-4-aza-tricyclo[16.2.2.0*6,11*]docosa-1(21),6,8,10,14,18(22),19-heptaene-3-carboxylic acid (1-cyano-cyclopropyl)-amide]",7.32
18,"N#CC1(NC(=O)[C@@H]2Cc3ccc(c(Cl)c3)OC/C=C/CNc3ccccc3C(=O)N2)CC1 [Example 21, (E)-(S)-19-Chloro-5-oxo-17-oxa-4,12-diaza-tricyclo[16.2.2.0*6,11*]docosa-1(21),6,8,10,14,18(22),19-heptaene-3-carboxylic acid (1-cyano-cyclopropyl)-amide]",7.27
19,"COc1ccc2c(c1)CCCCCOc1ccc(cc1Cl)C[C@@H](C(=O)NC1(C#N)CC1)NC2=O [Example 22, (S)-19-Chloro-9-methoxy-5-oxo-17-oxa-4-aza-tricyclo[16.2.2.0*6,11*]docosa-1(21),6,8,10,18(22),19-hexaene-3-carboxylic acid (1-cyano-cyclopropyl)-amide]",6.93
20,"N#CC1(NC(=O)[C@@H]2Cc3ccc(c(Cl)c3)OCCCCOc3cc(C(F)(F)F)ccc3C(=O)N2)CC1 [Example 23, (S)-19-Chloro-5-oxo-9-trifluoromethyl-12,17-dioxa-4-aza-tricyclo[16.2.2.0*6,11*]docosa-1(21),6,8,10,18(22),19-hexaene-3-carboxylic acid (1-cyano-cyclopropyl)-amide]",7.30
21,"N#CC1(NC(=O)[C@@H]2Cc3ccc(c(I)c3)OC/C=C/COc3ccccc3C(=O)N2)CC1 [Example 24, (E)-(S)-19-Iodo-5-oxo-12,17-dioxa-4-aza-tricyclo[16.2.2.*6,11*]docosa-1(21),6,8,10,14,18(22),19-heptaene-3-carboxylic acid (1-cyano-cyclopropyl)-amide]",6.79
22,"N#CC1(NC(=O)[C@@H]2Cc3ccc(c(I)c3)OC/C=C/COc3ccccc3C(=O)N2)CC1 [Example 25, (E)-(S)-19-Iodo-5-oxo-12,17-dioxa-4-aza-tricyclo[16.2.2.0*6,11*]docosa-1(21),6,8,10,14,18(22),19-heptaene-3-carboxylic acid (1-cyano-cyclopropyl)-amide, stereoaxis R]",6.63
23,"N#CC1(NC(=O)[C@@H]2Cc3ccc(c(I)c3)OC/C=C/COc3ccccc3C(=O)N2)CC1 [Example 26, (E)-(S)-19-Iodo-5-oxo-12,17-dioxa-4-aza-tricyclo[16.2.2.0*6,11*]docosa-1(21),6,8,10,14,18(22),19-heptaene-3-carboxylic acid (1-cyano-cyclopropyl)-amide, stereoaxis S]",6.86
24,"N#CC1(NC(=O)[C@@H]2Cc3ccc(c(Cl)c3)OC/C=C/COc3cc4c(cc3C(=O)N2)CCCC4)CC1 [Example 27, (3E,12S)-22-chloro-N-(1-cyanocyclopropyl)-14-oxo-2,5,11,12,13,14,16,17,18,19-decahydro-7,10-ethenonaphtho[2,3-b][1,12,5]dioxazacyclohexadecine-12-carboxamide]",7.80
25,"N#CC1(NC(=O)[C@@H]2Cc3ccc(c(I)c3)OC/C=C/COc3ccc(Cl)cc3C(=O)N2)CC1 [Example 28, (E)-(S)-8-Chloro-19-iodo-5-oxo-12,17-dioxa-4-aza-tricyclo[16.2.2.0*6,11*]docosa-1(21),6,8,10,14,18(22),19-heptaene-3-carboxylic acid (1-cyano-cyclopropyl)-amide]",7.96
